Reference: US8735389B2, “Treating psychological conditions using muscarinic receptor M1 antagonists” (priority 2006, dated 2014)

Key:
[1] = test system: muscarinic receptor; conditions: cited from earlier work
[2] = test system: cortical receptors; conditions: cited from earlier work
[3] = test system: cardiac receptors; conditions: cited from earlier work
[4] = test system: male CD-1 mice; test: tail suspension test (immobility time); assay type: in vivo
Text: Antidepressant Effects: The tail suspension methodology was used to assess compounds for their antidepressant effects. The methodology was adapted from the original description by Stem et al. (Stem L, et al., Psychopharmacol 85:367-70, 1985; Stem L, et al., Prog Neuro-Psychopharmacol & Biol Psychiat 11:659-71, 1987) and later modifications by Crowley et al. (Crowley J J, et al., Pharmacol Biochem Beh 78(2):269-74, 2004). Seven- to eight-week-old (25-35 grams) male, CD-1 mice were housed for one week prior to testing. Mice (n=8-10 per dose group) were dosed intraperitoneally (ip) or orally (po) with the compound under investigation, and returned to their home cage for the appropriate pretreatment interval (45-60 min). Using tape, the mice were then suspended by the tail from a strain gauge. Activity over the next 6 minutes was scored by computer as either: 1) Immobility, 2) Escape Behavior or 3) Major Escape Behavior, based on the intensity of movements registered by the strain gauge. Total Immobility was calculated and expressed in seconds. […] Treatment effects are presented in Table 1 and FIGS. 1-6 as both raw Time Spent Immobile (in seconds±SEM [standard error of the mean]) and as % Reduction in Immobility=[1−(Treatment Immobility/Vehicle Immobility)]×100%. Similar superscripts in the Dose column of Table 1 denote values derived from the same experiment (to facilitate comparisons between individual treatments and co-administrations). Statistical analyses were performed using a 1-way ANOVA (analysis of variance) followed by a Bonferroni multiple comparison test with the overall alpha set at 0.05. In Table 1, asterisks (*) denote significant effects compared to vehicle-treated mice, while letters (a or b) denote significant effects compared to mice treated with a single compound (“a” for significance from antidepressant and “b” for significance from telenzepine). In Table 1, the symbol denotes p<0.05, two symbols denote p<0.01 and three symbols denote p<0.001). The symbols used for denoting statistical significance may be different in the corresponding figures.

[5] = test system: mice and rats; conditions: administered systemically; cited from earlier work
[6] = test system: dopamine efflux in the striatum; conditions: local microinjection; cited from earlier work
[7] = test system: GABA efflux; conditions: directly injected into the midbrain; cited from earlier work
[8] = at 90 degrees; cited from earlier work

Cc1scc2c1N(C(=O)CN1CCN(C)CC1)c1ccccc1NC2=O [(+) form of telenzepine]
antimuscarinic activity [1]: potent antimuscarinic activity | factor by which the (+) form is more effective than the (−) isomer [2]: 400 | factor by which the (+) form is more potent than the (−) form [3]: 50

Cc1scc2c1N(C(=O)CN1CCN(C)CC1)c1ccccc1NC2=O [(−) form]
antimuscarinic activity [1]: considerably less active

CNCCC(Oc1ccc(C(F)(F)F)cc1)c1ccccc1 (stereo not shown) [Fluoxetine, fluoxetine]
Reduction in Immobility ([4]; 4 mg/kg ip, experiment c): 0% | Treatment Immobility Time ([4]; 4 mg/kg ip, experiment c): 97 ± 11 s | Reduction in Immobility ([4]; 4 mg/kg ip, experiment g): 45% | Treatment Immobility Time ([4]; 4 mg/kg ip, experiment g): 81 ± 16 s | Reduction in Immobility ([4]; 20 mg/kg ip, experiment g): 45% | Treatment Immobility Time ([4]; 20 mg/kg ip, experiment g): 82 ± 16 s | Reduction in Immobility ([4]; 40 mg/kg ip, experiment g): 64% | Treatment Immobility Time ([4]; 40 mg/kg ip, experiment g): 53 ± 14 s | lowering of the effective antidepressant dose (estimated) ([4]; to 4 mg/kg by co-administering 10 mg/kg TZP): approximately 7 fold

CN1CCN(CC(=O)N2c3ccccc3C(=O)Nc3cccnc32)CC1 [Pirenzepine, 5,11-Dihydro-11-[(4-methyl-1-piperazinyl)acetyl]-6H-pyrido[2,3-b][1,4]benzodiazepin-6-one]
Reduction in Immobility ([4]; 5 mg/kg ip, experiment f): −11% | Treatment Immobility Time ([4]; 5 mg/kg ip, experiment f): 137 ± 15 s | Reduction in Immobility ([4]; 25 mg/kg ip, experiment f): 27% | Treatment Immobility Time ([4]; 25 mg/kg ip, experiment f): 90 ± 17 s | Reduction in Immobility ([4]; 50 mg/kg ip, experiment f): 38% | Treatment Immobility Time ([4]; 50 mg/kg ip, experiment f): 76 ± 12 s | effect on immobility (in words) ([4]; alone at 50 mg/kg ip (FIG. 1)): significant reduction in immobility | behavioral effects [5]: failed to elicit any behavioral effects | dopamine efflux in the striatum [6]: decreased dopamine efflux in the striatum

CN[C@H]1CC[C@@H](c2ccc(Cl)c(Cl)c2)c2ccccc21 [Sertraline, sertraline]
Reduction in Immobility ([4]; 1 mg/kg ip, experiment a): 24% | Treatment Immobility Time ([4]; 1 mg/kg ip, experiment a): 87 ± 14 s | Reduction in Immobility ([4]; 5 mg/kg ip, experiment h): 48% | Treatment Immobility Time ([4]; 5 mg/kg ip, experiment h): 63 ± 08 s | Reduction in Immobility ([4]; 5 mg/kg ip, experiment h, listed as sertraline): 48% | Reduction in Immobility ([4]; 20 mg/kg ip, experiment h): 59% | Treatment Immobility Time ([4]; 20 mg/kg ip, experiment h): 50 ± 16 s | Reduction in Immobility ([4]; 40 mg/kg ip, experiment h): 64% | Treatment Immobility Time ([4]; 40 mg/kg ip, experiment h): 44 ± 15 s | lowering of the effective antidepressant dose ([4]; to 1 mg/kg by co-administering 5 mg/kg TZP): 5 fold

Cc1scc2c1N(C(=O)CN1CCN(C)CC1)c1ccccc1NC2=O [Telenzepine, 4,9-Dihydro-3-methyl-4-[(4-methyl-1-piperazinyl)acetyl]-10H-thieno[3,4-b][1,5]benzodiazepin-10-one]
Reduction in Immobility ([4]; 5 mg/kg ip, experiment a): 30% | Treatment Immobility Time ([4]; 5 mg/kg ip, experiment a): 80 ± 14 s | Reduction in Immobility ([4]; 5 mg/kg ip, experiment b): 21% | Treatment Immobility Time ([4]; 5 mg/kg ip, experiment b): 90 ± 18 s | Reduction in Immobility ([4]; 5 mg/kg ip, experiment d): −27% | Treatment Immobility Time ([4]; 5 mg/kg ip, experiment d): 159 ± 23 s | Reduction in Immobility ([4]; 10 mg/kg ip, experiment c): 34% | Treatment Immobility Time ([4]; 10 mg/kg ip, experiment c): 64 ± 15 s | Reduction in Immobility ([4]; 25 mg/kg ip, experiment d): 33% | Treatment Immobility Time ([4]; 25 mg/kg ip, experiment d): 84 ± 07 s | Reduction in Immobility ([4]; 50 mg/kg ip, experiment d): 51% | Treatment Immobility Time ([4]; 50 mg/kg ip, experiment d): 61 ± 11 s | Reduction in Immobility ([4]; 60 mg/kg po, experiment e): 45% | Treatment Immobility Time ([4]; 60 mg/kg po, experiment e): 71 ± 15 s | Reduction in Immobility ([4]; 80 mg/kg po, experiment e): 37% | Treatment Immobility Time ([4]; 80 mg/kg po, experiment e): 82 ± 18 s | Reduction in Immobility ([4]; 100 mg/kg po, experiment e): 55% | Treatment Immobility Time ([4]; 100 mg/kg po, experiment e): 59 ± 10 s | effect on immobility (in words) ([4]; alone at 25 mg/kg ip (FIG. 2)): significant reduction in immobility | effect on immobility (in words) ([4]; alone at 60 mg/kg po (FIG. 3)): significant reduction in immobility | GABA efflux [7]: reduced GABA efflux | half time of interconversion of the two forms [8]: approximately 200 hours

COc1ccc(C(CN(C)C)C2(O)CCCCC2)cc1 (stereo not shown) [Venlafaxine, venlafaxine]
Reduction in Immobility ([4]; 3 mg/kg ip, experiment i): 8% | Treatment Immobility Time ([4]; 3 mg/kg ip, experiment i): 103 ± 21 s | Reduction in Immobility ([4]; 10 mg/kg ip, experiment b): 10% | Treatment Immobility Time ([4]; 10 mg/kg ip, experiment b): 103 ± 15 s | Reduction in Immobility ([4]; 10 mg/kg ip, experiment i): −4% | Treatment Immobility Time ([4]; 10 mg/kg ip, experiment i): 116 ± 20 s | Reduction in Immobility ([4]; 30 mg/kg ip, experiment i): 72% | Treatment Immobility Time ([4]; 30 mg/kg ip, experiment i): 31 ± 09 s | Reduction in Immobility ([4]; 30 mg/kg ip, experiment i, listed as venlafaxine): 72% | lowering of the effective antidepressant dose ([4]; to 10 mg/kg by co-administering 5 mg/kg telenzepine): 3 fold
